Laboratory results taken from patent publication US8129398B2 (priority 2008, dated 2012).

Molecular target: T1, HIV-integrase (Human immunodeficiency virus type 1 group M subtype B, UniProt P12497)
T1 construct: Recombinant integrase (0.26 ng) was incubated with the beads
Assay: HIV-Integrase Inhibition Activity (SPA bead integration assay with P33 labeled target DNA)
Assay type: biochemical
Details: recombinant integrase, class symbols; read-out: in vitro activity
Procedure, shortened: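 Strand integration read as bead-proximity CPM after P33 target DNA (0.1 fmol) and inhibitor were added to washed integrase–substrate DNA complexes on SPA beads. Enzyme bound 90 min at 37° C; EDTA (10 mM final) terminated reaction; IC50 graded A/B/C.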

Structure (SMILES)	IC50
COCC(=O)N1CCN(C(=O)C(=O)NC23CCC(CC2)Cn2c3nc(C(=O)NCc3ccc(F)cc3)c(O)c2=O)CC1 [Example 141, N-(4-Fluorobenzyl)-3-hydroxy-10-(((4-(methoxyacetyl)-1-piperazinyl)(oxo)acetyl)amino)-4-oxo-4,6,7,8,9,10-hexahydro-7,10-ethanopyrimido[1,2-a]azepine-2-carboxamide]	< 10 nM
CN(C)C(=O)C(=O)NC12CCC(CC1)Cn1c2nc(C(=O)NCc2ccc(F)c(Br)c2)c(O)c1=O [Example 115, N′-(2-((3-Bromo-4-fluorobenzyl)carbamoyl)-3-hydroxy-4-oxo-6,7,8,9-tetrahydro-7,10-ethanopyrimido[1,2-a]azepin-10(4H)-yl)-N,N-dimethylethanediamide]	< 10 nM
CC(C)OC(=O)N1CCCC1C(=O)NC12CCC(CC1)Cn1c2nc(C(=O)NCc2ccc(F)cc2)c(O)c1=O (centres unmarked) [Example 405]	< 10 nM
COC(=O)C(=O)NC12CCC(CCn3c1nc(C(=O)NCc1ccc(F)cc1)c(O)c3=O)C2 (centres unmarked) [Example 210, Acetic acid, [[2-[[[(4-fluorophenyl)methyl]amino]carbonyl]-7,8,9,10-tetrahydro-3-hydroxy-4-oxo-8,1′-methano-4H-pyrimido[1,2-a]azocin-11(6H)-yl]amino]oxo-, methyl ester]	< 10 nM
COCCN(C)C(=O)C(=O)N(C)C12CCC(CC1)Cn1c2nc(C(=O)NCc2ccc(F)cc2)c(O)c1=O [Example 167, N-(2-((4-Fluorobenzyl)carbamoyl)-3-hydroxy-4-oxo-6,7,8,9-tetrahydro-7,10-ethanopyrimido[1,2-a]azepin-10(4H)-yl)-N′-(2-methoxyethyl)-N,N′-dimethylethanediamide]	< 10 nM
O=C(NC12CCC(CCn3c1nc(C(=O)NCc1ccc(F)cc1)c(O)c3=O)C2)C(=O)N1CC[C@@H](F)C1 (stereo partly drawn) [Example 208, 8,11-Methano-4H-pyrimido[1,2-a]azocine-2-carboxamide, N-[(4-fluorophenyl)methyl]-11-[[2-[(3R)-3-fluoro-1-pyrrolidinyl]-1,2-dioxoethyl]amino]-6,7,8,9,10,11-hexahydro-3-hydroxy-4-oxo-]	< 10 nM
CN(C)C(=O)C(=O)NC12CCC(CC1)Cn1c2nc(C(=O)NCc2ccc(S(N)(=O)=O)cc2)c(O)c1=O [Example 379]	< 10 nM
CN(C)C(=O)C(=O)NC12CCC(CC1)Cn1c2nc(C(=O)NCCCN2CCCC2=O)c(O)c1=O [Example 337]	> 100 nM
Cc1ccc(C(=O)NC23CCC(CC2)Cn2c3nc(C(=O)NCc3ccc(F)cc3)c(O)c2=O)o1 [Example 237, 7,10-Ethanopyrimido[1,2-a]azepine-2-carboxamide, N-[(4-fluorophenyl)methyl]-4,6,7,8,9,10-hexahydro-3-hydroxy-10-[[(5-methyl-2-furanyl)carbonyl]amino]-4-oxo-]	< 10 nM
CN(C)C(=O)C(=O)NC12CCC(CC1)Cn1c2nc(C(=O)NCc2cccnc2)c(O)c1=O [Example 364]	10 to 100 nM
O=C(NC12CCC(CC1)Cn1c2nc(C(=O)NCc2ccc(F)cc2)c(O)c1=O)c1ccnc(OCC(F)(F)F)c1 [Example 316, 7,10-Ethanopyrimido[1,2-a]azepine-2-carboxamide, N-[(4-fluorophenyl)methyl]-4,6,7,8,9,10-hexahydro-3-hydroxy-4-oxo-10-[[[2-(2,2,2-trifluoroethoxy)-4-pyridinyl]carbonyl]amino]-]	< 10 nM
Cc1cc(CNC(=O)c2nc3n(c(=O)c2O)CC2CCC3(NC(=O)C(C)(C)n3cc(C(=O)O)nn3)CC2)ccc1F [Example 285, 1H-1,2,3-Triazole-4-carboxylic acid, 1-[2-[[2-[[[(4-fluoro-3-methylphenyl)methyl]amino]carbonyl]-6,7,8,9-tetrahydro-3-hydroxy-4-oxo-7,10-ethanopyrimido[1,2-a]azepin-10(4H)-yl]amino]-1,1-dimethyl-2-oxoethyl]-]	< 10 nM
CN(C12CCC(CC1)Cn1c2nc(C(=O)NCc2ccc(F)cc2)c(O)c1=O)S(C)(=O)=O [Example 155, N-(4-Fluorobenzyl)-3-hydroxy-10-(methyl(methylsulfonyl)amino)-4-oxo-4,6,7,8,9,10-hexahydro-7,10-ethanopyrimido[1,2-a]azepine-2-carboxamide]	< 10 nM
O=C(NCc1ccc(F)cc1)c1nc2n(c(=O)c1O)CC1CCC2(Nc2ncc[nH]2)CC1 [Example 334, 7,10-Ethanopyrimido[1,2-a]azepine-2-carboxamide, N-[(4-fluorophenyl)methyl]-4,6,7,8,9,10-hexahydro-3-hydroxy-10-(1H-imidazol-2-ylamino)-4-oxo-]	< 10 nM
CCN(CC)C(=O)C(=O)NC12CCC(CCn3c1nc(C(=O)NCc1ccc(F)cc1)c(O)c3=O)C2 (centres unmarked) [Example 201]	< 10 nM
CN(C)C(=O)C(=O)NC12CCC(CC1)Cn1c2nc(C(=O)NCc2ccc(F)c(C(F)(F)F)c2)c(O)c1=O [Example 119, N′-(2-((4-Fluoro-3-(trifluoromethyl)benzyl)carbamoyl)-3-hydroxy-4-oxo-6,7,8,9-tetrahydro-7,10-ethanopyrimido[1,2-a]azepin-10(4H)-yl)-N,N-dimethylethanediamide]	< 10 nM
CS(=O)(=O)NC12CCC(CC1)Cn1c2nc(C(=O)NCc2ccc(F)cc2)c(O)c1=O [Example 21, N-(4-Fluorobenzyl)-3-hydroxy-10-((methylsulfonyl)amino)-4-oxo-4,6,7,8,9,10-hexahydro-7,10-ethanopyrimido[1,2-a]azepine-2-carboxamide]	< 10 nM
CN(C)CCN(C)C(=O)C(=O)NC12CCC(CC1)Cn1c2nc(C(=O)NCc2ccc(F)cc2)c(O)c1=O [Example 93, N-(2-(Dimethylamino)ethyl)-N′-(2-((4-fluorobenzyl)carbamoyl)-3-hydroxy-4-oxo-6,7,8,9-tetrahydro-7,10-ethanopyrimido[1,2-a]azepin-10(4H)-yl)-N-methylethanediamide]	< 10 nM
CN(C)C(=O)C(=O)NC12CCC(CC1)Cn1c2nc(C(=O)NCc2cc(Cl)cc(Cl)c2)c(O)c1=O [Example 383]	< 10 nM
O=C(NC12CCC(CC1)Cn1c2nc(C(=O)NCc2ccc(F)cc2)c(O)c1=O)C(=O)N1CC(O)C1 [Example 65, N-(4-Fluorobenzyl)-3-hydroxy-10-(((3-hydroxy-1-azetidinyl) (oxo)acetyl)amino)-4-oxo-4,6,7,8,9,10-hexahydro-7,10-ethanopyrimido[1,2-a]azepine-2-carboxamide]	< 10 nM
O=C(NC12CCC(CC1)Cn1c2nc(C(=O)NCc2ccc(F)cc2)c(O)c1=O)C(=O)N1CCNCC1 [Example 62, N-(4-Fluorobenzyl)-3-hydroxy-4-oxo-10-((oxo(1-piperazinyl)acetyl)amino)-4,6,7,8,9,10-hexahydro-7,10-ethanopyrimido[1,2-a]azepine-2-carboxamide]	< 10 nM
CC(C)CN(C)C(=O)C(=O)NC12CCC(CC1)Cn1c2nc(C(=O)NCc2ccc(F)cc2)c(O)c1=O [Example 99, N′-(2-((4-Fluorobenzyl)carbamoyl)-3-hydroxy-4-oxo-6,7,8,9-tetrahydro-7,10-ethanopyrimido[1,2-a]azepin-10(4H)-yl)-N-methyl-N-(2-methylpropyl)ethanediamide]	< 10 nM
COC(=O)N1CCCC1C(=O)NC12CCC(CC1)Cn1c2nc(C(=O)NCc2ccc(F)cc2)c(O)c1=O (centres unmarked) [Example 406]	< 10 nM
